PubChem BioAssay (NCI)
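In this assay, cells in 96-well plates receive the compound at five concentrations for 48 hours. Endpoints are linearly interpolated between the surrounding concentrations. GI50: concentration for 50% inhibition of growth. Definition used: TGI = concentration required for complete inhibition of growth.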

What was measured:
Assay in all cases: inhibition of tumour cell growth, NCI panel, 48 h
IGROV1 ovarian = test system: IGROV1 ovarian
SNB-75 CNS = test system: SNB-75 CNS
HT29 colon = test system: HT29 colon
OVCAR-3 ovarian = test system: OVCAR-3 ovarian
COLO 205 colon = test system: COLO 205 colon
NCI-H522 lung = test system: NCI-H522 lung
EKVX NSCLC = test system: EKVX NSCLC
OVCAR-5 ovarian = test system: OVCAR-5 ovarian
NCI/ADR-RES ovarian = test system: NCI/ADR-RES ovarian
SN12C renal = test system: SN12C renal

Structure (SMILES)	GI50 (IGROV1 ovarian)	TGI (IGROV1 ovarian)	GI50 (SNB-75 CNS)	TGI (SNB-75 CNS)	GI50 (HT29 colon)	TGI (HT29 colon)	GI50 (OVCAR-3 ovarian)	TGI (OVCAR-3 ovarian)	GI50 (COLO 205 colon)	TGI (COLO 205 colon)	GI50 (NCI-H522 lung)	TGI (NCI-H522 lung)	GI50 (EKVX NSCLC)	TGI (EKVX NSCLC)	GI50 (OVCAR-5 ovarian)	TGI (OVCAR-5 ovarian)	GI50 (NCI/ADR-RES ovarian)	TGI (NCI/ADR-RES ovarian)	GI50 (SN12C renal)	TGI (SN12C renal)
Clc1c(Cl)[n+](Cc2ccc3ccccc3c2)cn1Cc1ccc2ccccc2c1	1.33 µM	2.93 µM	0.836 µM	2.21 µM	0.57 µM	2.01 µM	1.34 µM	2.69 µM	1.13 µM	2.57 µM	1.12 µM	2.67 µM	1.83 µM	4.98 µM	1.54 µM	3.32 µM	16.3 µM	38 µM	1.53 µM	2.99 µM
CNC(=O)c1ccc(N2C(=S)N(c3cnc(C#N)c(C(F)(F)F)c3)C(=O)C23CCC3)cc1F	> 100 µM	> 100 µM	> 100 µM	> 100 µM	> 100 µM	> 100 µM	> 100 µM	> 100 µM	> 100 µM	> 100 µM	> 100 µM	> 100 µM	> 100 µM	> 100 µM	> 100 µM	> 100 µM	> 100 µM	> 100 µM	> 100 µM	> 100 µM
O=C(O)CSc1n[nH]c(=O)[nH]c1=O	–	> 100 µM	–	> 100 µM	–	> 100 µM	–	> 100 µM	–	> 100 µM	–	> 100 µM	–	> 100 µM	–	> 100 µM	–	> 100 µM	–	> 100 µM
COc1ccc(C2(Cl)c3ccccc3N(c3ccccc3)c3ccccc32)cc1	0.77 µM	10.3 µM	0.359 µM	2.05 µM	0.306 µM	2.3 µM	0.307 µM	1.47 µM	0.421 µM	2.45 µM	0.444 µM	2.94 µM	0.25 µM	2.9 µM	2.19 µM	7.64 µM	2.05 µM	10.5 µM	0.232 µM	1.22 µM
CCOC(=O)C1=CCCC[C@H]1S(=O)(=O)Nc1ccc(F)cc1Cl	31 µM	> 100 µM	25.1 µM	> 100 µM	41.1 µM	> 100 µM	23.2 µM	77.3 µM	38.2 µM	> 100 µM	23.1 µM	90.1 µM	26.8 µM	> 100 µM	25 µM	77.1 µM	33.9 µM	> 100 µM	24.5 µM	94.5 µM
COc1ccccc1Nc1cc(O)c2c(=O)cc(-c3ccccc3)oc2c1	2.98 µM	18.5 µM	2.39 µM	8.5 µM	3.64 µM	> 100 µM	2.05 µM	5.2 µM	9.92 µM	> 100 µM	2.67 µM	27.1 µM	4.83 µM	56 µM	4.82 µM	27.3 µM	1.99 µM	18 µM	3.5 µM	17.6 µM
Oc1c(Cl)cc(Cl)c(Cl)c1CNCCNCc1c(O)c(Cl)cc(Cl)c1Cl	0.951 µM	7.8 µM	2.43 µM	10.6 µM	5.83 µM	> 50 µM	0.502 µM	7.08 µM	1.09 µM	> 50 µM	1.28 µM	8.24 µM	1.32 µM	10.2 µM	2.49 µM	29 µM	0.245 µM	6.84 µM	2.02 µM	17.9 µM
CC(C)C[C@H](NC(=O)CNC(=O)c1cc(Cl)ccc1Cl)B(O)O	0.0498 µM	0.283 µM	0.0256 µM	0.124 µM	< 0.0155 µM	0.0616 µM	< 0.0141 µM	0.0292 µM	0.0432 µM	> 38.5 µM	0.0164 µM	0.0414 µM	–	–	0.0493 µM	0.551 µM	0.183 µM	> 100 µM	0.0442 µM	0.39 µM
Cc1onc(-c2ccccc2)c1C(=O)N/N=C/c1cc(Cl)cc(Cl)c1O	2.92 µM	21.7 µM	6.75 µM	> 100 µM	8.63 µM	58.7 µM	3.82 µM	26.6 µM	3.84 µM	24.2 µM	3.67 µM	33.6 µM	–	–	8.65 µM	> 100 µM	3.76 µM	34.3 µM	4.58 µM	60.5 µM
C=C(c1ccc(OC)c(/C=C/C(=O)c2ccc3c(c2)OCO3)c1)c1cc(OC)c(OC)c(OC)c1	4.31 µM	> 100 µM	1.64 µM	7.08 µM	2.98 µM	10.4 µM	2.98 µM	8.21 µM	4.15 µM	> 100 µM	1.55 µM	4.78 µM	4.67 µM	> 100 µM	4.4 µM	> 100 µM	2.77 µM	37.2 µM	3.84 µM	> 100 µM
O=C1N[C@@H]2[C@@H](O)[C@@H](O)[C@H](O)C[C@H]2c2cc3c(c(O)c21)OCCO3	0.389 µM	3.13 µM	0.466 µM	2.62 µM	0.315 µM	2.08 µM	0.276 µM	1.01 µM	0.162 µM	0.405 µM	0.199 µM	0.993 µM	0.323 µM	1.85 µM	0.412 µM	3.28 µM	0.629 µM	5.38 µM	0.162 µM	0.978 µM
COc1ccc2c(c1)C(=O)c1c-2n(CCCN(C)C)c(=O)c2ccccc12	0.344 µM	12.3 µM	0.648 µM	5.29 µM	0.275 µM	10.9 µM	0.551 µM	7.85 µM	0.187 µM	2.62 µM	0.188 µM	4.04 µM	0.645 µM	8.45 µM	0.515 µM	12.7 µM	0.349 µM	9.66 µM	0.255 µM	5.7 µM
Cc1c(-c2cnccn2)ssc1=S	–	> 100 µM	–	59.8 µM	–	> 100 µM	–	> 100 µM	–	> 100 µM	–	> 89.8 µM	–	90.9 µM	–	> 100 µM	–	> 100 µM	–	> 100 µM
